Converted amounts (≈) assume the structure as drawn. The source made the active and inactive calls. The rule behind the calls is not given here.
Key:
KETR3 = assay: Cytotoxicity assay against human Ketr3 cells at 10 uM after 96 hrs by MTT assay; format: functional, cell-based
HCT-8 = assay: Cytotoxicity assay against human HCT8 cells at 10 uM after 96 hrs by MTT assay; format: functional, cell-based
[1] = Inhibition of NDM-1 (unknown origin) expressed in Escherichia coli BL21 using meropenem as substrate compound preincubated for 15 min by spectrophotometry
Coxsackievirus B3 = assay: Antiviral activity against Coxsackievirus B3 at 10 uM; format: functional, organism-based
Klebsiella pneumoniae [2] = assay: Antibacterial activity against Klebsiella pneumoniae ATCC BAA-2146 at 256 ug/mL after 24 hrs by spectrophotometry; format: functional, organism-based
Klebsiella pneumoniae [3] = assay: Antibacterial activity against Klebsiella pneumoniae ATCC BAA-2146 assessed as reduction in meropenem MIC at 128 ug/mL after 24 hrs by spectrophotometry; format: functional, organism-based
Klebsiella pneumoniae [4] = assay: Antibacterial activity against Klebsiella pneumoniae ATCC BAA-2146 at 10 uM after 24 hrs by spectrophotometry; format: functional, organism-based
Influenza A virus [5] = assay: Antiviral activity against influenza A virus A/Hanfang/359/95 (H3N2) infected in MDCK cells at 10 uM by Reed and Muench analysis; format: functional, organism-based
A549 = assay: Cytotoxicity assay against human A549 cells at 10 uM after 96 hrs by MTT assay; format: functional, cell-based
Bel-7402 = assay: Cytotoxicity assay against human Bel7402 cells at 10 uM after 96 hrs by MTT assay; format: functional, cell-based
Influenza A virus [6] = assay: Antiviral activity against influenza A virus A/FM/1/47 (H1N1) infected in MDCK cells at 10 uM by Reed and Muench analysis; format: functional, organism-based
MCF7 = assay: Cytotoxicity assay against human MCF7 cells at 10 uM after 96 hrs by MTT assay; format: functional, cell-based
BGC-823 = assay: Cytotoxicity assay against human BGC823 cells at 10 uM after 96 hrs by MTT assay; format: functional, cell-based
Klebsiella pneumoniae [7] = assay: Antibacterial activity against Klebsiella pneumoniae ATCC BAA-2146 after 24 hrs by spectrophotometry; format: functional; conditions: ATCC BAA-2146, 24 h

| SMILES | Activity (KETR3) | Activity (HCT-8) | IC50 [1] [µM] | Activity (Coxsackievirus B3) | Activity (Klebsiella pneumoniae [2]) | Activity (Klebsiella pneumoniae [3]) | Activity (Klebsiella pneumoniae [4]) | Activity (Influenza A virus [5]) | Activity (A549) | Activity (Bel-7402) | Activity (Influenza A virus [6]) | Activity (MCF7) | Activity (BGC-823) | MIC (Klebsiella pneumoniae [7]) [µg/mL] |
| --- | --- | --- | --- | --- | --- | --- | --- | --- | --- | --- | --- | --- | --- | --- |
| COc1c(O)cc2oc3cc(C)ncc3c(=O)c2c1C(=O)O | inactive | inactive | 87.9 | inactive | inactive | inactive | inactive | inactive | inactive | inactive | inactive | inactive | inactive |  |
| O=C(O)CN(CCN(CC(=O)O)CC(=O)O)CC(=O)O [EDETIC ACID] |  |  | < 0.1 |  |  |  |  |  |  |  |  |  |  |  |
| C[C@H]1C[C@@H](O)[C@@H]2O[C@@H]2[C@H]1O | inactive | inactive |  | inactive |  |  | inactive | inactive | inactive | inactive | inactive | inactive | inactive |  |
| C[C@H](CS)C(=O)N1CCC[C@@H]1C(=O)O [D-CAPTOPRIL] |  |  | 8 |  |  |  |  |  |  |  |  |  |  |  |
| C[C@@H](O)[C@H]1C(=O)N2C(C(=O)O)=C(S[C@@H]3CN[C@H](C(=O)N(C)C)C3)[C@H](C)[C@H]12 [MEROPENEM] |  |  |  |  |  |  |  |  |  |  |  |  |  | 128 (≈ 334 µM) |
| CC(=O)C[C@H](O)c1coc2cc(O)cc(C(=O)O)c2c1=O | inactive | inactive | 94.9 | inactive | inactive | inactive | inactive | inactive | inactive | inactive | inactive | inactive | inactive |  |
| C[C@H](CS)C(=O)N1CCC[C@H]1C(=O)O [CAPTOPRIL] |  |  | 108 |  |  |  |  |  |  |  |  |  |  |  |
| O=C(O)C[C@H](NC(=O)c1cc(=O)[nH]c2ccccc12)C(=O)O | inactive | inactive |  | inactive |  |  | inactive | inactive | inactive | inactive | inactive | inactive | inactive |  |

From ChEMBL document CHEMBL2417415, “Polyketides with New Delhi metallo-β-lactamase 1 inhibitory activity from Penicillium sp” (J Nat Prod, 2013)
